Experimental data reported in US8242274B2, “Triazolopyridine kinase inhibitors useful for the treatment of degenerative and inflammatory diseases” (Galapagos NV, priority 2008, dated 2012).

Experiments:
[1] = target: T1, Recombinant human JAK2 catalytic domain (Homo sapiens, UniProt O60674); assay: JAK2 inhibition assay; assay type: biochemical; conditions: semi-quantitative score
T1 construct: Recombinant human JAK2 catalytic domain (amino acids 808-1132; catalog number PV4210); purchased Invitrogen PV4210
Method: Recombinant human JAK2 catalytic domain (amino acids 808-1132; catalog number PV4210) was purchased from Invitrogen. 0.025 mU of JAK2 was incubated with 2.5 μg polyGT substrate (Sigma catalog number P0275) in kinase reaction buffer (5 mM MOPS pH 7.5, 9 mM MgAc, 0.3 mM EDTA, 0.06% Brij and 0.6 mM DTT, 1 μM non-radioactive ATP, 0.25 μCi 33P-gamma-ATP (GE Healthcare, catalog number AH9968) final concentrations) with or without 5 μL containing test compound or vehicle (DMSO, 1% final concentration), in a total volume of 25 μL, in a polypropylene 96-well plate (Greiner, V-bottom). After 90 min at 30° C., reactions were stopped by adding of 25 μL/well of 150 mM phosphoric acid. All of the terminated kinase reaction was transferred to prewashed (75 mM phosphoric acid) 96 well filter plates (Perkin Elmer catalog number 6005177) using a cell harvester (Perkin Elmer). Plates were washed 6 times with 300 μL per well of a 75 mM phosphoric acid solution and the bottom of the plates was sealed. 40 μL/well of Microscint-20 was added, the top of the plates was sealed and readout was performed using the Topcount (Perkin Elmer). Kinase activity was calculated by subtracting counts per minute (cpm) obtained in the presence of a positive control inhibitor (10 μM staurosporine) from cpm obtained in the presence of vehicle. The ability of a test compound to inhibit this activity was determined as: Percentage inhibition=((cpm determined for sample with test compound present−cpm determined for sample with positive control inhibitor) divided by (cpm determined in the presence of vehicle−cpm determined for sample with positive control inhibitor))*100%.
(§1) Dose dilution series were prepared for the compounds enabling the testing of dose-response effects in the JAK2 assay and the calculation of the IC50 for each compound. Each compound was routinely tested at concentration of 20 μM followed by a 1/3 serial dilution, 8 points (20 μM-6.67 μM-2.22 μM-740 nM-247 nM-82 nM-27 nM-9 nM) in a final concentration of 1% DMSO.

[2] = Microsomal stability, human; assay type: in vitro ADME; conditions: human liver microsomes, 3 μM compound, 37° C.
Method: A 10 mM stock solution of compound in DMSO was diluted 1000 fold in a 182 mM phosphate buffer pH 7.4 in a 96 deep well plate (Greiner, Cat no. 780285) and pre-incubated at 37° C.
40 μL of deionised water was added to a well of a polypropylene Matrix 2D barcode labelled storage tube (Thermo Scientific) and pre-incubated at 37° C.
A Glucose-6-phosphate-dehydrogenase (G6PDH) working stock solution was prepared in 182 mM phosphate buffer pH7.4 and placed on ice before use. A co-factor containing MgCl2, glucose-6-phosphate and NADP+ was prepared in deionised water and placed on ice before use.
A final working solution containing liver microsomes (Xenotech) of a species of interest (human, mouse, rat, dog), previously described G6PDH and co-factors was prepared and this mix was incubated for no longer than 20 minutes at room temperature.
30 μL of the pre-heated compound dilution was added to 40 μL of pre-heated water in the Matrix tubes and 30 μL of the microsomal mix was added. Final reaction concentrations were 3 μM compound, 1 mg microsomes, 0.4 U/mL GDPDH, 3.3 mM MgCl2, 3.3 mM glucose-6-phosphate and 1.3 mM NADP+.
To measure percentage remaining of compound at time zero MeOH or ACN was added (1:1) to the well before adding the microsomal mix. The plates were sealed with Matrix Sepra Seals™ (Matrix, Cat. No. 4464) and shaken for a few seconds ensure complete mixing of all components.
The samples which were not stopped are incubated at 37° C., 300 rpm and after 1 hour of incubation the reaction was stopped with MeOH or ACN (1:1).
After stopping the reaction the samples were mixed and placed on ice for 30 min to precipitate the proteins. The plates were then centrifuged 30 min at 1200 rcf at 4° C. and the supernatant was transferred to a 96 v-bottom PP plate (Greiner, 651201) for analysis on LCMS.
These plates were sealed with sealing mats (MA96RD-04S) of www.kinesis.co.uk and samples were measured at room temperature on LCMS (ZQ 1525 from Waters) under optimized conditions using Quanoptimize to determine the appropriate mass of the parent molecule.
The samples were analyzed on LCMS with a flow rate of 1 mL/min. Solvent A was 15 mM ammonia and solvent B was methanol or acetonitrile, depending on the stop solution used. The samples were run under positive ion spray on an XBridge C18 […] (2.1×30 mm) column, from Waters.
Peak area from the parent compound at time 0 was considered to be 100% remaining. The percentage remaining after 1 hour incubation was calculated from time 0 and was calculated as the percentage remaining. The solubility of the compound in the final test concentration in buffer is inspected by microscope and results are reported.
The data on microsomal stability are expressed as a percentage of the total amount of compound remaining after 60 minutes.

[3] = target: T2, Recombinant human JAK1 catalytic domain (Homo sapiens, UniProt P23458); assay: JAK1 inhibition assay; assay type: biochemical; conditions: semi-quantitative score
T2 construct: Recombinant human JAK1 catalytic domain (amino acids 850-1154; catalog number 08-144); purchased Carna Biosciences 08-144
Method: Recombinant human JAK1 catalytic domain (amino acids 850-1154; catalog number 08-144) was purchased from Carna Biosciences. 10 ng of JAK1 was incubated with 12.5 μg polyGT substrate (Sigma catalog number P0275) in kinase reaction buffer (15 mM Tris-HCl pH 7.5, 1 mM DTT, 0.01% Tween-20, 10 mM MgCl2, 2 μM non-radioactive ATP, 0.25 μCi 33P-gamma-ATP (GE Healthcare, catalog number AH9968) final concentrations) with or without 5 μL containing test compound or vehicle (DMSO, 1% final concentration), in a total volume of 25 μL, in a polypropylene 96-well plate (Greiner, V-bottom). After 45 min at 30° C., reactions were stopped by adding of 25 μL/well of 150 mM phosphoric acid. All of the terminated kinase reaction was transferred to prewashed (75 mM phosphoric acid) 96 well filter plates (Perkin Elmer catalog number 6005177) using a cell harvester (Perkin Elmer). Plates were washed 6 times with 300 μL per well of a 75 mM phosphoric acid solution and the bottom of the plates was sealed. 40 μL/well of Microscint-20 was added, the top of the plates was sealed and readout was performed using the Topcount (Perkin Elmer). Kinase activity was calculated by subtracting counts per minute (cpm) obtained in the presence of a positive control inhibitor (10 μM staurosporine) from cpm obtained in the presence of vehicle. The ability of a test compound to inhibit this activity was determined as: Percentage inhibition=((cpm determined for sample with test compound present−cpm determined for sample with positive control inhibitor)divided by(cpm determined in the presence of vehicle−cpm determined for sample with positive control inhibitor))*100%.
as §1, with “JAK1” for “JAK2”

T1 sequence (O60674 808-1132): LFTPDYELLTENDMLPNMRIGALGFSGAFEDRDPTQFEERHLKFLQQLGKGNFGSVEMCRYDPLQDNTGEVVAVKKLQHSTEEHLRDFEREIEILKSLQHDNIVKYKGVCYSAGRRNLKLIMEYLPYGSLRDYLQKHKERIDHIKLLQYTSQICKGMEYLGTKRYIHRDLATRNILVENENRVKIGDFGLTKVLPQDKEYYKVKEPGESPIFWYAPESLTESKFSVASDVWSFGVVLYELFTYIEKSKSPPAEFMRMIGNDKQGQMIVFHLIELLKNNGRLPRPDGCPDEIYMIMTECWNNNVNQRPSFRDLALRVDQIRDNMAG
T2 sequence (P23458 850-1154): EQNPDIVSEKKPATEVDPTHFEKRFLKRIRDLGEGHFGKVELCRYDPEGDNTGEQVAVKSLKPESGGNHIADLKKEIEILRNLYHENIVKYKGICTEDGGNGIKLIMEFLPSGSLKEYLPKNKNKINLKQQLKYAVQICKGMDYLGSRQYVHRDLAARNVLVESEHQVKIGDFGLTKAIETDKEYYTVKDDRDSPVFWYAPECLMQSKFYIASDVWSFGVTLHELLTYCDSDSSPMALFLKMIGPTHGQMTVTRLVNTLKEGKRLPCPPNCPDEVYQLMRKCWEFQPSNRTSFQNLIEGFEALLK

Structure (SMILES)	IC50 [1]	Microsomal stability Human (%), compound remaining after 60 minutes [2]	IC50 [3]
O=C(Nc1nc2cccc(-c3ccc(OCc4ccccc4)nc3)n2n1)C1CC1 [Compound 57, Cyclopropanecarboxylic acid [5-(6-benzyloxy-pyridin-3-yl)-[1,2,4]triazolo[1,5-a]pyridin-2-yl]-amide]	1 to 100 nM	42.75%	0.1 to 100 nM
O=C(Nc1nc2cccc(-c3ccc(OCc4ccc(C(F)(F)F)nc4)cc3)n2n1)C1CC1 [Compound 78, N-(5-(4-((6-(trifluoromethyl)pyridin-3-yl)methoxy)phenyl)-[1,2,4]triazolo[1,5-a]pyridin-2-yl)cyclopropanecarboxamide]	1 to 100 nM	78.21%	0.1 to 100 nM
O=C(Nc1nc2cccc(-c3ccc(OCc4ccccn4)cc3)n2n1)C1CC1 [Compound 37, N-(5-(4-(pyridin-2-ylmethoxy)phenyl)-[1,2,4]triazolo[1,5-a]pyridin-2-yl)cyclopropanecarboxamide]	1 to 100 nM	70.98%	0.1 to 100 nM
N#Cc1ccc(COc2ccc(-c3cccc4nc(NC(=O)C5CC5)nn34)cc2)cn1 [Compound 176, N-(5-(4-((6-cyanopyridin-3-yl)methoxy)phenyl)-[1,2,4]triazolo[1,5-a]pyridin-2-yl)cyclopropanecarboxamide]	1 to 100 nM	157.1%	0.1 to 100 nM
CC(=O)Nc1ccc(COc2ccc(-c3cccc4nc(NC(=O)C5CC5)nn34)cc2)cc1 [Compound 92, N-(5-(4-(4-acetamidobenzyloxy)phenyl)-[1,2,4]triazolo[1,5-a]pyridin-2-yl)cyclopropanecarboxamide]		30.21%	0.1 to 100 nM
O=C(Nc1nc2cccc(-c3ccc(OCc4cccnc4)cc3)n2n1)C1CC1 [Compound 36, N-(5-(4-(pyridin-3-ylmethoxy)phenyl)-[1,2,4]triazolo[1,5-a]pyridin-2-yl)cyclopropanecarboxamide]	1 to 100 nM	11.65%	0.1 to 100 nM

Now from value to compound:

IC50 [1]	Microsomal stability Human (%), compound remaining after 60 minutes [2]	IC50 [3]	Structure (SMILES)
1 to 100 nM	4.88%	0.1 to 100 nM	O=C(Nc1nc2cccc(-c3ccc(NCc4ccccc4)cc3)n2n1)C1CC1 [Compound 72, N-(5-(4-(benzylamino)phenyl)-[1,2,4]triazolo[1,5-a]pyridin-2-yl)cyclopropanecarboxamide]
1 to 100 nM	70%	0.1 to 100 nM	O=C(Nc1nc2cccc(-c3ccc(OCc4ccccc4)cc3)n2n1)C1CC1 [Compound 12, N-(5-(4-(benzyloxy)phenyl)-[1,2,4]triazolo[1,5-a]pyridin-2-yl)cyclopropanecarboxamide]
